Values of other authors in US12564579B2, “Topical formulations of (1S)-1-phenyl-2-pyridin-2-ylethanamine” (priority 2020, dated 2026).

Conditions: clinical trials

Question: Which psychotomimetic side effects does the source give for `N[C@@H](Cc1ccccn1)c1ccccc1` [Lanicemine, (1S)-1-phenyl-2-pyridin-2-ylethanamine] here?
Answer: little or no psychotomimetic side effects

Question: And the study endpoints (development terminated by sponsor)?
Answer: did not meet study endpoints
